# In US8314150B2, “Kinase protein binding inhibitors” (priority 2008, dated 2012):
# System: FAK wildtype fibroblasts (MEFs)
# Experiment: MTT cell viability assay, FAK wildtype vs FAK null fibroblasts
# Assay type: cell-based
# Settings: 72 hours, p<0.05
# Experimental: The 3-(4,5-dimethylthiazol-2-yl)-5-(3-carboxymethoxyphenyl)-2-(4-sulfophenyl)-2H-tetrazolium compound from Promega Viability kit (Madison, Ill.) was added, and the cells were incubated at 37° C. for 1-2 hours. The optical density on 96-plate was analyzed with a microplate reader at 490 nm to determine cell viability. In addition, cells were stained with trypan blue after 24 hours of treatment with Y15 and the percent of cells that stained positive were determined with a hemacytometer. Cell adhesion assay—The poly-L-Lysine or Collagen (5 μg/ml) coated 96-well plates were blocked with the blocking buffer (medium with 0.5% BSA) for 1 hour at 37 C. […] Then 2% SDS was added to the dried plated and OD at 590 nm was measured for detecting cell adhesion. […] Protein concentrations were determined using a Bio-Rad Kit. The boiled samples were loaded on Ready SDS-10% PAGE gels (Bio Rad, Inc) and used for Western blot analysis with the protein-specific antibody. […] Detachment Assay—Cells were plated with and without inhibitors for 24 hours, and detached and attached cells were counted in a hemocytometer. We calculated the percent of detachment by dividing the number of detached cells by the total number of cells. The percent of detached cells was calculated in three independent experiments. […] For each experiment 300 cells per treatment were counted. […]
smiles,measurement,value
"Cl.Cl.Cl.Cl.Nc1cc(N)c(N)cc1N [Y15, 1,2,4,5-benzenetetraamine tetrahydrochloride]",dose from which viability of FAK wildtype fibroblasts decreased compared to FAK null fibroblasts,0.1 µM
